Experimental data: patent US9567347B2, “Use of small molecule inhibitors targeting the interaction between RAC GTPase and p67(phox)” (CHILDREN'S HOSPITAL MEDICAL CENTER, priority 2012, dated 2017)

Experiments:
[1] = target: T1, p67^phox recombinant protein (1-200) (Homo sapiens, UniProt P19878); test: microscale thermophoresis binding to p67phox
T1 construct: using the pET30-HIS p67(1-212) plasmid; His; made in house; host or cells: E. coli BL21(DE3)
T1 sequence (P19878 1-212): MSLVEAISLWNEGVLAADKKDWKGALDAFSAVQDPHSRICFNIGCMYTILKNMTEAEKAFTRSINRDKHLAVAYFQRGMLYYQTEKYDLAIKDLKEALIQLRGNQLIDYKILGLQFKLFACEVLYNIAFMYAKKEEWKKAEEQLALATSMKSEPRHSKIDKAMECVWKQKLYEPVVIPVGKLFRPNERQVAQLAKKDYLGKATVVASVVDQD
Experimental: The p67^phox protein was expressed in BL21(DE3) bacteria (Stratagene) using the pET30-HIS p67(1-212) plasmid. Protein was purified using the QIAexpress Ni-NTA kit (Qiagen) or the GST Bind Resin Chromatography Kit (Novagen) for RacV12 and RacWT proteins. Mutagenesis was carried out using the Quick Change Lightening Site Directed Mutagenesis Kit (Stratagene).
Proteins were labeled for microscale thermophoresis using the Monolith NT Protein Labeling Kit Red (Nano Temper Technologies) as recommended by the manufacturer. Binding reactions were carried out using the Monolith NT. 115 (Nano Temper Technologies). Binding data was analyzed using Graphpad Prizm to estimate Kd values. The arbitrary fluorescence value from the thermophoresis plots for the smallest compound titration was subtracted from every other data point (Delta depletion) prior to normalization to a Vmax of 100. In thermophoresis plots where there was no binding, a curve could not be fit and therefore no Vmax could be assigned. In these instances the highest delta depletion value was set to 100 and all data were normalized accordingly.
To test the ability of compounds identified by preliminary screening to bind to the p67^phox protein in the N-terminal 200 amino acid region involved in Rac1-GTP interaction, microscale thermophoresis was employed. This technology probes for fluorescent changes in the hydration shell of molecules in order to measure protein-protein or protein small molecule interactions with high sensitivity in near-native conditions.

[2] = tested on: fMLP-stimulated differentiated HL-60 cells; test: H2-DCFDA FACS ROS production assay in fMLP-stimulated differentiated HL-60 cells; assay type: cell-based, human; settings: for IC50: dHL-60 cells, DCFDA assay; for inhibition of ROS production, Phox-I1 analogs: FIG. 3B
Experimental: (§1) HL-60 cells were propagated in RPMI 1640 medium containing 10% heat inactivated fetal bovine serum, 2 mM L-glutamine, 100 U/mL penicillin/streptomycin at 37° C. in air containing 5% CO2. For differentiation, HL-60 cells were cultured in 1.3% dimethyl sulfoxide (DMSO) as previously described (Servant, G., et al. (1999) Mol Biol Cell 10, 1163-1178, hereby incorporated by reference in its entirety). Primary murine neutrophils were isolated from C57Bl/6 mouse bone marrow according to a published protocol (Filippi et al., (2004) Nat Immunol 5, 744-751, hereby incorporated by reference in its entirety) using a discontinuous Percoll (Pharmacia) gradient and were utilized immediately in experiments. Human neutrophils were obtained from fresh blood (IRB #2010-1855, Cincinnati Children's Hospital medical Center) following a well established protocol using density gradient separation from whole blood (Oh et al. (2008) J Vis Exp., 17, pii: 745, hereby incorporated by reference in its entirety).
Cells (5×10^5) were harvested and processed for Annexin V/7AAD staining according to manufacturer's protocol (Becton Dickinson). Flow cytometry data were acquired on a FACS Canto bench-top flow cytometer (Becton Dickinson) and the cell cycle distributions were determined by […] using Flo-Jo software (Bosco et al (2010) Blood 115, 3320-3328, hereby incorporated by reference in its entirety). For ROS production assay, primary murine neutrophils or dHL60 cells were incubated with compound for 2 hours prior to addition of H2-DCFDA according to manufacturer's instructions (Molecular Probes). Cells were then stimulated with 10 μM fMLP (Sigma), 1 mM CaCl2, and 1.5 mM MgCl2 for 15 minutes prior to wash and FACS analysis for mean fluorescence intensity. Non-fMLP stimulated control values were subtracted from all samples before normalization to fMLP-stimulated, vehicle control treated sample in order to display percent ROS inhibition.
To validate the hits from preliminary screening in cells, several cellular functional assays were performed using different cell types to measure the effect of compounds on inhibition of ROS production. ROS levels were first analyzed by fluorescence-activated cell sorting (FACS) in HL-60 pre-incubated with compounds for 2 hr prior to stimulation of ROS production. The p67^phox inhibitor, Phox-I1, was tested against NAC (a ROS scavenger), DPI (a broad range inhibitor of NADPH oxidase), and NSC23766 (a Rac-GTP inhibitor; FIG. 2A). […] H2O2 added to the cells was included as a positive control for ROS measurement. Second, to test the capacity of Phox-I1 to inhibit ROS production in a primary cell context, primary murine neutrophils isolated from mouse bone marrow were treated with increasing concentrations of Phox-I1 and the efficacy of inhibition of fMLP-stimulated ROS production was analyzed. DPI treatment was included as a positive control for inhibition of ROS production (FIG. 2B). […] Next, to ascertain the optimal effective dose for ROS inhibition in cells, a dose titration series of Phox-I1 was administered to dHL-60 cells (FIG. 2C).

[3] = tested on: primary murine neutrophils; test: H2-DCFDA FACS ROS production assay in primary murine neutrophils; assay type: cell-based, mouse; settings: 10 μM and 20 μM
Experimental: as §1, with “Human neutrophils were obtained from fresh blood (IRB #2010-1855, Cincinnati Children's Hospital medical Center) following a well established protocol using density gradient separation from whole blood (Oh et al. (2008) J Vis Exp., 17, pii: 745, hereby incorporated by reference in its entirety).” left out
Cells (5×10^5) were harvested and processed for Annexin V/7AAD staining according to manufacturer's protocol (Becton Dickinson). Flow cytometry data were acquired on a FACS Canto bench-top flow cytometer (Becton Dickinson) and the cell cycle distributions were determined by […] using Flo-Jo software (Bosco et al (2010) Blood 115, 3320-3328, hereby incorporated by reference in its entirety). […] Cells were then stimulated with 10 μM fMLP (Sigma), 1 mM CaCl2, and 1.5 mM MgCl2 for 15 minutes prior to wash and FACS analysis for mean fluorescence intensity. […]

Compound | Kd [1] [nM] | ROS production compared to standard ROS inhibitors ([2]; 20 μM, pre-incubated 2 hr) | IC50 ([2]; Homo sapiens, HL-60) [nM] | dose of optimal cellular response ([2]; dose titration in dHL-60 cells) [µM] | inhibition of ROS production, Phox-I1 analogs ([2]; pre-incubated 2 hr) | inhibition of fMLP-stimulated ROS production [3] | binding to p67^phox [1] | IC50 [2] [nM] | inhibition of ROS production, Phox-I1 analogs ([2]; pre-incubated 2 hr, listed as Analog 16) | inhibition of ROS production, Phox-I1 analogs ([2]; pre-incubated 2 hr, listed as analog 16)
COc1ccc2c(c1)C1C=C(c3ccccc3)NN1C(c1cccc([N+](=O)[O-])c1)O2 (centres unmarked) [Phox-I1] | ~100 | able to attenuate ROS production | ~3000 | 10 | greatest inhibition of ROS production | able to inhibit ROS production nearly as well as DPI at 100 μM concentration |  |  |  | 
O=[N+]([O-])c1cccc(C2Nc3ccc([N+](=O)[O-])cc3C3C=CCC32)c1 (centres unmarked) [Phox-I2] | ~150 |  |  |  |  |  | high affinity | ~1000 | improved ROS inhibition over Phox1 | greatest inhibition of ROS production
